# Experimental data taken from a melting point compilation (Tetko et al.; mined from patent text by program, amines drawn as free bases though some values may be those of a salt).
row,SMILES,melting point [°C]
1,CC1=C(c2ccc(C(=O)N3Cc4ccc(C(=O)O)n4Cc4ccccc43)cc2)CCCC1,171
2,COC(C)Cc1ccc(OCCNc2ncnc3ccccc23)c(C)c1 (stereo not given),95 to 97
3,N#CC(CCN1CCC(C(=O)ON2C(=O)c3ccccc3C2=O)(c2ccccc2)CC1)(c1ccccc1)c1ccccc1,156 to 158
4,CNC(=O)C(Cc1ccc(OC)cc1)NC(=O)C(C)(CC(C)C)c1ccc(Cl)cc1S (stereo not given),174 to 178
5,O=C(Cn1ncc(-c2ccccc2)c1-c1ccccc1)NCCCN1CCCC1,75 to 79
6,CCCN1Cc2ccccc2C(=O)c2cc(CC(=O)O)ccc21,126
7,Cn1nnc(-c2ccc(C=O)cc2)n1,137 to 139
8,CS(=O)(=O)Nc1ccc(OCCCNC(=O)c2ccc(Br)cc2)cc1,208 to 209
9,Cc1cccc(S(=O)(=O)C2(CC#Cc3ccc(Cl)cc3)SC(=O)NC2=O)n1 (stereo not given),104 to 106
10,N#CCNC(=O)C1(NC(=O)c2ccc(N3CCN(Cc4ccccc4)CC3)cc2)CCCCC1,210 to 212
11,CN(C)CC(=O)NCc1ccc(-c2cc3c(Nc4ccc(F)c(Cl)c4)ncnc3[nH]2)cc1,320 to 325
12,CN1CCN(C(=O)OC2c3ccccc3C(=O)N2c2ccc3cnccc3n2)CC1 (stereo not given),215
13,CCCCC(=O)C(Cc1ccc(C(=O)O)cc1)c1ccccc1 (stereo not given),140
14,CNc1cc(Br)nc(S(=O)(=O)c2ccc(N)cc2)c1,158 to 160
15,COC(COC1CC2C3CCC4=CC(=O)CCC4(C)C3(F)C(O)CC2(C)C1(O)C(=O)CO)OC (stereo not given),192 to 194
16,CC(=O)Nc1cc(C)c([N+](=O)[O-])cn1,153 to 154
17,CCCCCCCCCCCCCCCCCCOc1ccc(C(=O)C(=O)O)cc1,78 to 80
18,Clc1ncnc2c1ncn2C1CC=CC1,56 to 58
19,C1=C(c2c[nH]c3ccccc23)CCN(CC2COc3ccc4c(c3O2)CCCO4)C1 (stereo not given),186 to 187
20,NC(=S)c1c[nH]cc1-c1cccc(Cl)c1Cl,128 to 132
21,Cc1cc(C)cc(S(=O)c2cccc(N)c2C#N)c1 (stereo not given),190 to 191
22,COC(=O)/C=C/n1cnc2ccc(OC(C)C)cc2c1=O,156 to 158
23,CCOc1ccc(Nc2nc(=O)cc(N)n2-c2ccccc2)cc1,111 to 113

row,SMILES,melting point [°C]
1,CC(C)=CCOc1ccc(C(=O)C=Cc2cccs2)c(O)c1,100 to 102
2,CC(C)(Cn1c(CO)nc2c(N)nc3ccccc3c21)CS(C)(=O)=O,230 to 232
3,CC(C)(O)C1CCN(Cc2ccc(C#CC(=O)Nc3ccc(-c4ccc(Cl)cc4)cc3)cc2)CC1,194 to 195
4,Cc1nn(-c2ccccn2)c2ncc(C(=O)N(C)c3ccccc3)c(OCc3ccccc3)c12,92 to 93
5,CCOC(=O)c1nc[nH]c1-c1ccccc1,203 to 205
6,COCCOCCN1C(=O)C2(c3cc4c(cc3OC2OC)OCCO4)c2c(OC)cccc21 (stereo not given),109 to 110
7,CC(=O)c1ccc(S(=O)(=O)Nc2ccc(F)cn2)cc1,151 to 152
8,CCOC(=O)c1ccc([C@H]2CC[C@H](NCc3ccccc3)CC2)cc1,74 to 76
9,COc1cc(CO)ccc1OCc1nc(-c2cccc(OS(C)(=O)=O)c2)oc1C,140 to 141
10,COC(=O)c1cccc(/C=C/c2cc3ccccc3o2)c1,98 to 100
11,COc1cc2c(cc1OC)C(=O)CCCS2,128 to 129
12,CCCc1nc2c(C)ccnc2n1Cc1ccc(-c2ccncc2-c2nnn[nH]2)cc1,110 to 112
13,CN(C(=O)CBr)c1ccc(Cl)cc1C(=O)c1ccccc1Cl,86
14,CCC1(CCCCN2CC=C(c3ccc(Cl)cc3)CC2)C(=O)Nc2ccccc21 (stereo not given),142 to 145
15,CCCCCCCC(=O)CCCCCC(=O)N[C@@H](C)C(=O)OC,61 to 64
16,Cc1[nH]c2ccccc2c1C1=C(c2c(C)[nH]c3ccccc23)C(=O)NC1=O,311 to 313
17,Cc1c(C(=O)C=Cc2ccccc2F)c2ccccc2n1CCN1CCOCC1,113 to 116
18,COC(=O)CCC(C)(C)c1ccc(OC)c(NC(=O)C[C@H]2O[C@H](c3cccc(OC)c3OC)c3cc(Cl)ccc3N(CC(C)(C)COC(C)=O)C2=O)c1,157 to 158
19,O=C1c2cccc3cccc(c23)C(=O)N1CCCCCCBr,95 to 96
20,CCOC(=O)c1c[nH]c2cc(Cl)ncc2c1=O,300
21,Cc1ccn2c(C)c(CCc3ccc4nc(N)oc4c3)nc2c1,244 to 246
22,CON(C)C(=O)/C=C/c1c(C2CC2)nc2ccccc2c1-c1ccc(F)cc1,141

# More lines, now with the values ahead:
row,melting point [°C],SMILES
1,224 to 226,CCOc1ccccc1-c1nc2nc(SC)ncc2c(=O)[nH]1
2,195 to 196,Cc1cc(=O)[nH]c2nc(CCCCCN3CCN(c4cccc(Cl)c4Cl)CC3)ccc12
3,201,COC(=O)CCCc1cc2nc(Cl)ccc2n1S(=O)(=O)c1ccc2c(c1)CCO2
4,308 to 311,O=C(c1ccccc1)c1cc2c3ccccc3[nH]c(=O)n2n1
5,110 to 111,Oc1cccc(-c2c3ccccc3c(Br)c3sc4ccccc4c23)c1
6,143 to 145,O=C(O)Cc1ccc(OCc2ccccc2)c(C(=O)O)c1
7,87 to 90,CC(C)(O)c1ccc(C(Cc2ccc(F)cc2)C(=O)Nc2nc3ccccc3o2)cc1 (stereo not given)
8,99,CNC(=O)NS(=O)(=O)c1cc(CCNC(=O)/C=C/c2cccs2)ccc1OCCOC
9,109,C=C(C)CC1(OC=C(C)C)CC=C(C)C(NC=O)=C1C (stereo not given)
10,124 to 125,CCC(CC)(OC)c1ccc(Cl)c2nc3n(c12)CCCN3c1ccc(Cl)cc1Cl
11,216 to 218,O=C(NCCCn1ccnc1)c1[nH]c2ccc(Cl)cc2c1S(=O)(=O)c1ccccc1
12,122,C=CC(=O)c1ccc(OC(=O)c2ccc(C#N)cc2)cc1
13,83,CCOC(=O)c1[nH]c2ccccc2c1CN(Cc1cc(C(F)(F)F)cc(C(F)(F)F)c1)c1nnn(C)n1
14,194,CCOC(=O)C(N)C=C(CCCCCCN)CP(=O)(O)O (stereo not given)
15,103 to 105,O=[N+]([O-])c1c(Br)nn(CCO)c1Br
16,222 to 223,CCCNc1nnc(Cc2c(Cl)cncc2Cl)c2ccc(OC)cc12
17,260 to 261,Cc1ccc(NC2=C(Cl)C(=O)c3ccccc3C2=O)nc1
18,148,CC(C)(C)OC(=O)NNC(=O)c1ccc(O)c(O)c1
19,157 to 158,CCCCn1ncc2c1nc(N)n1nc(-c3ccco3)nc21
20,52 to 53,COC(=O)c1cc([N+](=O)[O-])ccc1F

row,melting point [°C],SMILES
1,166,C=CCc1c(OC(C)=O)cc(C)c2c(C)cc(=O)oc12
2,118 to 120,COC(=O)c1ccc(SC)c([N+](=O)[O-])c1
3,108,CC1SC(c2cccnc2)N(CC(=O)OC(C)(C)C)C1=O (stereo not given)
4,174,CNC(=O)N(C)c1nnc(SCC(=O)OC(C)(C)C)s1
5,196 to 197,ClC1=Nc2cc(Br)ccc2Oc2cscc21
6,192 to 198,Cc1c(C(=O)O)ccc(S(C)(=O)=O)c1S(C)(=O)=O
7,245 to 247,COC=C1C(=O)NC(=O)c2ccc(OC)cc21
8,214 to 215,Cc1cc(S)n2nc(CN=[N+]=[N-])nc2n1
9,206 to 208,Cc1c(Br)c(=O)oc2nn(Cc3ccccc3Cl)c(C)c12
10,107,CCOc1ccc([N+](=O)[O-])c(NCCN2CCOCC2)c1
11,95 to 96,Cc1ccc(C(=O)COc2ccc(F)cc2)cc1
12,144 to 146,CCOC(=O)c1cccc2nc(C(C)C)n(Cc3ccc(-c4ccccc4-c4nnn[nH]4)cc3)c12
13,184,Cc1ccc(S(=O)(=O)Nc2cc(C)cc([N+](=O)[O-])c2N)cc1
14,150 to 152,COC(=O)c1c([N+](=O)[O-])cccc1[N+](=O)[O-]
15,119 to 121,CCCCc1nn(-c2cc(NC(=O)CC)ccc2Br)c(=O)n1Cc1ccc(-c2ccccc2S(=O)(=O)NC(C)(C)C)cc1F
16,212 to 215,O=C1Nc2ccccc2C12COc1ccc3c(c12)N(Cc1ncccc1C(F)(F)F)ON3 (stereo not given)
17,> 250,COc1cc2c(-c3ccncc3)c(C(=O)O)oc(=O)c2cc1OC
18,96.5 to 98.5,COc1cc(C(C)=O)c(F)cc1Cl
19,64 to 65,C=C1CSc2sccc2C1=O
20,134 to 135,COc1ccc(-c2ccc(C(=O)O)c(OC)c2)cc1OC

row,melting point [°C],SMILES
1,247 to 250,COc1ccccc1NC(=O)Nc1nc(O)ncc1F
2,42 to 43,O=C(CCC1CC1)N1C(=O)OC[C@@H]1Cc1ccccc1
3,155 to 156,CCCCC(=O)Nc1ncc([N+](=O)[O-])s1
4,80 to 81,CCCCc1oc2ccccc2c1Cc1cc(I)c(OCCN(CC)CC)c(I)c1
5,278 to 280,COc1cc2cc3c(N)c(C(N)=O)sc3nc2cc1OC
6,177 to 178,O=C(Oc1ccc(Cl)c2c(=O)c3ccccc3sc12)c1ccccc1
7,85 to 87,CCCc1c(OCCCSc2nc3ccc(C(=O)O)cc3[nH]2)ccc(C(C)=O)c1OC(C)=O
8,88 to 90,CCCCCCCCNC(=O)N=C(NC(=O)NCC)OC
9,166 to 168,CCOCc1cc(O)cc2cc(-c3ccc(O)cc3)oc12
10,129 to 130,CCC(C)(C)NC(=O)NC(C)C#N (stereo not given)
11,160,CCOC(=O)C1=COc2ccc(O)cc2O1
12,181,Clc1ccc(C2(Cn3cncn3)OCCO2)c(Cl)c1Cl
13,83 to 84,CN(C)c1ccnc(CO)n1
14,149 to 154,CC(=O)OCSc1ccc2c3c(cccc13)C(=O)N2
15,74 to 76,CCSC(=S)N1Cc2[nH]c3ccccc3c2CC1CO (stereo not given)
16,52 to 53,CNc1cc(F)ccc1C(C)=O
17,225 to 227,S=C(Nc1c(Cl)cccc1Cl)N1CCN(c2cnccn2)CC1
18,147 to 150,C=Cc1ccccc1N1CCCCC1
19,157 to 159,CC1(C)OCC(=CCn2cnc3c(Cl)nc(N)nc32)CO1
20,299 to 302,Oc1ccc(-n2cnc3cc(O)cc(O)c3c2=S)cc1
